According to ChEMBL document CHEMBL3301448, “MMV Malaria Box screening against Toxoplasma gondii and Entamoeba histolytica”:

Assays:
Entamoeba histolytica = assay: MMV: Primary screening was performed with each compound at a 30 uM final concentration and in triplicate in sealed 96-well polystyrene microtiter plates. Parasite inocula (100 ul) comprising 20000 parasites/ml were added to each well and grown at 37 degrees C in a humidified atmosphere of 5% CO2 for 72 h. Positive controls consisted of metronidazole at 1 mg/ml. The growth of E. histolytica trophozoites in each well was determined microscopically by measuring the diameters of the confluent cells in drug-containing wells relative to those in the nega- tive-control wells.; assay type: functional, organism-based
Toxoplasma gondii = assay: MMV: A total of 100ul of inoculum was added to each well (parasite/cell ratio, ~10:1; final volume, 200 ul). Six hours after inoculation, nonadherent parasites were removed, and 100 ul of complete DMEM (1% penicillin-streptomycin, 3% FBS) supplemented with inhibitors at different concentrations (2-fold serial dilutions starting from 30 uM) was added to all except the negative-control wells. Positive controls, consisting of pyrimethamine (PYR) and sulfadiazine (SDZ) (20-mg/ml stocks in DMSO), were tested at a 2mg/ml final concentration. Each test was performed in triplicate.; assay type: functional, organism-based; conditions: 6 h

SMILES	IC50 (Entamoeba histolytica) [µM]	IC50 (Toxoplasma gondii) [µM]
CCOc1ccc2nc(C)cc(Nc3ccc(N(C)C)cc3)c2c1	> 30	> 30
OCCNc1nc(Nc2ccc(Cl)c(Cl)c2)nc2ccccc12	> 30	> 30
Cc1sc(NC(=O)c2ccco2)c(C(c2cccnc2)N2CCC(Cc3ccccc3)CC2)c1C (stereo not drawn)	> 30	> 30
COc1cccc(C2(C)Nc3ccccc3-c3nc4ccccc4n32)c1 (stereo not drawn)	> 30	> 30
COc1ccc(CN2CCN(Cc3ccccc3)CC2)c(O)c1	> 30	> 30
Cc1ccc(Nc2nc(NCCO)c3ccccc3n2)cc1C	> 30	> 30
O=C(Nc1ccc(-c2nc3ccccc3[nH]2)cc1)c1ccc(Cl)c(Cl)c1	> 30	> 30
Cc1ccc2cc3c(N)c4c(C)ccc(C)c4nc3nc2c1	> 30	> 30
Cc1ccc(-c2nc3ccccc3o2)cc1NCc1cc(Cc2ccccc2)ccc1O	> 30	> 30
COc1cccc(C(=O)NC(c2ccc(C)cc2)c2cc(Cl)c3cccnc3c2O)c1 (stereo not drawn)	> 30	> 30
COc1ccc(NC(=O)C2c3ccccc3C(=O)N(CC(C)C)C2c2cccs2)cc1Cl (stereo not drawn)	> 30	> 30
Oc1ccc(Br)cc1CN1CCN(Cc2cccc(F)c2)CC1	> 30	> 30
COc1ccc(-c2nc(NC(=O)CS(=O)(=O)c3ccc(F)cc3)sc2C)cc1	> 30	> 30
O=C(CCc1ccco1)NC1CCN(CC2(c3ccc(Cl)cc3)CCC2)CC1	> 30	24
COc1ccc2c(c1OC)C(=O)N1c3ccccc3N=C(c3ccc(C)cc3)CC21 (stereo not drawn)	> 30	> 30
CC(C)(C)c1ccc(O)c(CNC2CCCCC2)c1	> 30	> 30
O=C(NC1CCCCC1)C(c1cccs1)N(CCc1ccccc1)C(=O)c1ccco1 (stereo not drawn)	> 30	> 30
O=C(Nc1ccc(CN2CCOCC2)cc1)c1ccc(-c2cc(Cl)ccc2Cl)o1	> 30	> 30
CC(C)c1ccc(CNCC(O)c2ccccc2)cc1 (stereo not drawn)	> 30	18.1
Oc1ccc(C(=C(Cl)Cl)c2ccc(O)cc2)cc1	> 30	> 30
COc1ccc(-c2nc(N3CCN(C(=O)C4CCCCC4)CC3)c3c4c(sc3n2)CCCC4)cc1	> 30	> 30
Fc1ccc2[nH]c3c(NCCCN4CCOCC4)ncnc3c2c1	> 30	> 30

SMILES	IC50 (Entamoeba histolytica) [µM]	IC50 (Toxoplasma gondii) [µM]
CC(C)(C)CC(C)(C)NCC(O)COc1ccc(Cl)cc1Cl (stereo not drawn)	> 30	> 30
CC1CCN(Cc2c(O)ccc3cc(-c4nc5ccccc5s4)c(=O)oc23)CC1	> 30	> 30
O=C(Cc1ccccc1)NC(c1ccc(Cl)cc1)c1c(O)ccc2ccccc12 (stereo not drawn)	> 30	> 30
CCOC(=O)c1c[nH]c2c(CC)cccc2c1=O	> 30	> 30
CCCc1c(C)nc2ccc(Br)cc2c1O	> 30	> 30
Cc1ccc(F)cc1NC(=O)c1cc(Cl)ccc1Nc1ccccc1	> 30	> 30
COc1ccc(C2c3ccc4ccccc4c3Oc3ncn(CCCN(C)C)c(=N)c32)cc1 (stereo not drawn)	> 30	> 30
CCCCOC(=O)c1ccc(Nc2cc(C)nc3ccc(OC)cc23)cc1	> 30	> 30
CC(C)=CCN1CCC(C(=O)Nc2ccc(-c3nc4ccccc4[nH]3)cc2)CC1	> 30	> 30
O=C(Nc1ccccc1O)c1ccc(-c2ccc(Cl)cc2Cl)o1	> 30	> 30
CCCn1c(=N)c(C(=O)NC2CCCCC2)cc2c(=O)n3cccc(C)c3nc21	> 30	> 30
CCOC(=O)c1cnc2ccc(CC)cc2c1O	> 30	> 30
COc1cc2c(cc1OC)C1=NNC(=O)C1=NC(C)(C)C2	> 30	> 30
CC(=O)c1ccc(NC(=O)CSc2nc(-c3ccccc3Cl)ns2)cc1	> 30	14.9
COc1ccc(CCN2CCC(CN(C)Cc3cnn(-c4ccccc4)c3)CC2)cc1	> 30	> 30
Oc1c(C(Nc2ccccn2)c2cccc(Oc3ccccc3)c2)ccc2cccnc12 (stereo not drawn)	> 30	> 30
COc1cc(OC)cc(N2C(=O)N(Cc3ccc(C(C)(C)C)cc3)c3ccccc3S2(=O)=O)c1	> 30	> 30
COc1ccc(CCNC(=O)c2cc(S(=O)(=O)N3CC(C)CC(C)C3)ccc2Sc2ccc(F)cc2)cc1OC (stereo not drawn)	> 30	> 30
COCCn1c(C)nc2ccccc2c1=O	> 30	> 30
O=C(NNc1cc(N2CCCC2)nc(N2CCCC2)n1)c1ccccc1	> 30	> 30
CCOc1ccc(/C=C/c2nc(=O)c3ccccc3o2)cc1	> 30	> 30
O=C(NCC1Cc2cccc(-c3ccncc3)c2O1)c1csc2c1CCCC2 (stereo not drawn)	> 30	> 30

SMILES	IC50 (Entamoeba histolytica) [µM]	IC50 (Toxoplasma gondii) [µM]
COc1ccc(CNC2CCN(c3ccc(NC(=O)c4cccc(Cl)c4)cc3)CC2)cc1OC	> 30	> 30
CCC(O)c1ccc(Br)cc1NC(=O)c1cccc(Cl)c1 (stereo not drawn)	> 30	> 30
CCCCCn1c(=N)n(CC(O)COc2cccc(C)c2)c2ccccc21 (stereo not drawn)	> 30	17.9
COc1ccc(C(=O)Nc2ccc3nc(N4CCCCC4)cc(C)c3c2)cc1OC	> 30	25.7
CCOC(=O)c1cnc2ccc(OC)cc2c1NCc1ccccc1	> 30	> 30
CC(C)(C)c1ccc(C(=O)Nc2nc3ccccc3s2)cc1	> 30	> 30
CCOC(=O)C1=CN(C)C=C(C(=O)OCC)C1c1cc(Br)c(OCC)c(OC)c1	> 30	> 30
CCN(CC)c1ccc(NC(=O)c2cccs2)cc1	> 30	> 30
COc1ccc(CN2CCCC(C(=O)c3ccc(C(F)(F)F)cc3)C2)c(O)c1 (stereo not drawn)	> 30	> 30
CN(C)c1ccc(-c2nc3cc(N)ccc3[nH]2)cc1	> 30	> 30
c1ccc(CNc2nc(Nc3ccccc3)nc3ccccc23)cc1	> 30	> 30
COc1ccccc1CNC(=O)CCn1c(=O)[nH]c2ccccc2c1=O	> 30	> 30
CCOC(=O)c1cnc2ccc(OC)cc2c1Nc1ccc(N2CCN(C)CC2)cc1	> 30	> 30
COc1ccc(C2=C(c3ccc(OC)cc3)C3(c4ccccc4)C(=O)C2(c2ccccc2)C2C(=O)N(c4ccc(C)cc4)C(=O)C23)cc1 (stereo not drawn)	> 30	> 30
O=C(NC1CCN(Cc2ccccc2)CC1)c1cc(-c2ccncc2)nc2ccc(Cl)cc12	> 30	> 30
CCOc1cccc2sc(N(Cc3cccnc3)C(=O)C3CCCCC3)nc12	> 30	> 30
CN(N=O)C1=C(NC2CCCCC2)C(=O)c2ccccc2C1=O	> 30	> 30
O=C(Nc1ccc(F)c(Cl)c1)Nc1ccc(Cl)c(Cl)c1	> 30	26.5
COc1cccc(C=Cc2nc(=O)c3ccccc3o2)c1OC	> 30	> 30
Cc1ccc2c(C)nc(Nc3nc(C)cc(-c4ccccc4)n3)nc2c1	> 30	> 30
